Test results reported in patent EP0482717A1, “Use of a benzo[b]thiophene-2-carboximidamide derivative against heart failure” (Akzo Nobel N.V., priority 1990, dated 1992).
Marks after values point to notes of the source that are not given here.

Tests used:
Assay type in all cases: in vivo
[1] = system: anaesthetized cat; experiment: Left ventricular contractility (LV dP/dt) after oral administration (by gavage) to anaesthetized cats; settings: for potency at increasing left ventricular contractility (LV dP/dt): administered orally (by gavage), compounds I and II compared, species not given
From the text: However, it also appeared that this improvement with regard to compound II could be fully attributed to its reduced bioavailability. […] Poor activity was also observed after oral administration (by gavage) of the compound to anaesthetized cats. Substitution with C1 at the 4- position in the benzothiophene nucleus, thus reduces oral activity.
(§1) The pharmacological results after oral administration of compounds I (this invention) vs. compounds II and III (EP 158,380), are depicted in table I (cat) and table II (dog).

[2] = system: conscious dog; experiment: Left ventricular contractility (LV dP/dt), emesis and restlessness after oral administration to conscious dogs
From the text: (§2) Related compounds with positive inotropic activity have been disclosed in European patent 158,380.
as §1

[3] = Plasma drug levels in multiple dose studies in rats; settings: compared with an equivalent dose of compound II
[4] = system: volunteers; experiment: Clinical Phase I studies, oral administration to volunteers
From the text: as §2

[5] = oral administration, conscious dog, dose 25 mg/kg

SMILES | activity after oral administration (by gavage) ([1]; anaesthetized cats) | increases of left ventricular contractility (LV dP/dt) ([2]; conscious dogs, oral administration, doses up to and including 50 mg/kg) | emesis and vomiting ([2]; dose not stated) | restlessness ([2]; dose not stated) | emesis [2, 5] | increase in LV dP/dt (%) [2, 5] | potency at increasing left ventricular contractility (LV dP/dt) [1] | emetic effect compared with compound II ([2]; oral administration to conscious dogs) | restlessness [2, 5] | increases in LV dP/dt ([2]; oral dose 25 mg/kg) | vomiting ([2]; oral dose 25 mg/kg) | plasma drug levels [3] | doses at which the compound consistently produces vomiting and restlessness ([2]; administered orally to conscious restrained dogs) [mg/kg] | nausea and vomiting [4]
COc1cc2sc(C(N)=NO)cc2c(Cl)c1OC [III] | Poor activity | Only modest increases | did not cause emesis and vomiting | restlessness was still observed | 0 | 10% | – | – | – | – | – | – | – | –
COc1cc2sc(C(=N)NO)cc2c(F)c1OC [Compound I, 4-fluoro-N-hydroxy-5,6-dimethoxybenzo[b]thiophene-2-carboximidamide] | – | – | – | – | 0 | 45% | approximately equipotent | less emetic than compound II | 0 | marked increases | no significant vomiting | higher | – | –
COc1cc2cc(C(N)=NO)sc2cc1OC [II] | – | – | – | – | – | 50-100* % | approximately equipotent | – | – | – | – | – | > 10 | nausea and vomiting were also observed
